Several values for one entry are separate records, joined by “and”; a condition that tells them apart may be missing. Identical values can stand only once.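 Assay format: 96-well plates, 48-hour exposure. At the GI50, growth is halved. TGI denotes the concentration required for complete inhibition of growth.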
How the values were obtained:
Assay in all cases: inhibition of tumour cell growth, NCI panel, 48 h
SN12C renal = tested on: SN12C renal
PC-3 prostate = tested on: PC-3 prostate
HCT-15 colon = tested on: HCT-15 colon
MDA-MB-435 = tested on: MDA-MB-435
HCT-116 colon = tested on: HCT-116 colon
LOX IMVI melanoma = tested on: LOX IMVI melanoma
OVCAR-3 ovarian = tested on: OVCAR-3 ovarian

In the case of CCNNC(=O)[C@@H]1[C@H](c2cc(OC)c(OC)c(OC)c2)c2cc3c(cc2[C@H](O)[C@H]1CO)OCO3, the GI50 (SN12C renal) was 0.449 µM, the TGI (SN12C renal) was over 100 µM and the GI50 (PC-3 prostate) was 0.391 µM. It also gave a TGI (PC-3 prostate) of over 100 µM, a GI50 (HCT-15 colon) of 0.398 µM and a TGI (HCT-15 colon) of over 100 µM. The GI50 (MDA-MB-435) was 0.24 µM, the TGI (MDA-MB-435) was 0.697 µM and the GI50 (HCT-116 colon) was 0.354 µM. For the same compound, the TGI (HCT-116 colon) was over 100 µM, the GI50 (LOX IMVI melanoma) was 0.357 µM and the TGI (LOX IMVI melanoma) was over 100 µM. It also gave a GI50 (OVCAR-3 ovarian) of 0.275 µM and a TGI (OVCAR-3 ovarian) of 0.804 µM.
Cc1cc(N(CCCNc2ccnc3cc(Cl)ccc23)Cc2ccc3c(c2)OCO3)nc(N2CCCCC2)n1 gave a GI50 (SN12C renal) of 2.87 µM, a TGI (SN12C renal) of 12 µM and a GI50 (PC-3 prostate) of 2.1 µM. It also gave a TGI (PC-3 prostate) of 5.38 µM, a GI50 (HCT-15 colon) of 1.42 µM and a TGI (HCT-15 colon) of 3.05 µM. For the same compound, the GI50 (MDA-MB-435) was 1.72 µM, the TGI (MDA-MB-435) was 3.27 µM and the GI50 (HCT-116 colon) was 1.35 µM. For the same compound, the TGI (HCT-116 colon) was 3.28 µM, the GI50 (LOX IMVI melanoma) was 1.69 µM and the TGI (LOX IMVI melanoma) was 3.29 µM. For the same compound, the GI50 (OVCAR-3 ovarian) was 1.63 µM and the TGI (OVCAR-3 ovarian) was 3.19 µM.
For Cn1cnc2c(F)c(Nc3ccc(Br)cc3F)c(C(=O)NOCCO)cc21, the GI50 (SN12C renal) was 13.7 µM, the TGI (SN12C renal) was over 100 µM and the GI50 (PC-3 prostate) was over 100 µM. For the same compound, the TGI (PC-3 prostate) was over 100 µM, the GI50 (HCT-15 colon) was 57.5 µM and the TGI (HCT-15 colon) was over 100 µM. For the same compound, the GI50 (MDA-MB-435) was 0.0609 µM and 0.0547 µM, the TGI (MDA-MB-435) was over 100 µM and the GI50 (HCT-116 colon) was 0.203 µM and 0.317 µM. For the same compound, the TGI (HCT-116 colon) was over 100 µM, the GI50 (LOX IMVI melanoma) was 0.0936 µM and 0.399 µM and the TGI (LOX IMVI melanoma) was > 4.03 µM and 42.8 µM. It also gave a GI50 (OVCAR-3 ovarian) of over 100 µM and a TGI (OVCAR-3 ovarian) of over 100 µM.
FC(F)(F)c1cccc2c(SCCc3n[nH]c(=S)o3)ccnc12 was tested, and the GI50 (SN12C renal) was 51.4 µM, the TGI (SN12C renal) was over 100 µM and the GI50 (PC-3 prostate) was 34.1 µM. The TGI (PC-3 prostate) was over 100 µM, the GI50 (HCT-15 colon) was 66.2 µM and the TGI (HCT-15 colon) was over 100 µM. For the same compound, the GI50 (MDA-MB-435) was 45.4 µM, the TGI (MDA-MB-435) was over 100 µM and the GI50 (HCT-116 colon) was 44.4 µM. For the same compound, the TGI (HCT-116 colon) was over 100 µM, the GI50 (LOX IMVI melanoma) was 67 µM and the TGI (LOX IMVI melanoma) was over 100 µM. The GI50 (OVCAR-3 ovarian) was 42.9 µM and the TGI (OVCAR-3 ovarian) was over 100 µM.
For CN1C[C@@H]2Cn3c(c(C4=C(c5cn(C)c6ccccc56)C(=O)NC4=O)c4ccccc43)C[C@H]2C1, the GI50 (SN12C renal) was 3.45 µM and 3.3 µM, the TGI (SN12C renal) was 8.8 µM and 8.65 µM and the GI50 (PC-3 prostate) was 3.91 µM and 2.81 µM. For the same compound, the TGI (PC-3 prostate) was 11 µM and 7.08 µM, the GI50 (HCT-15 colon) was 4.41 µM and 3.58 µM and the TGI (HCT-15 colon) was 13.1 µM and 10.9 µM. The GI50 (MDA-MB-435) was 3.43 µM and 3.16 µM, the TGI (MDA-MB-435) was 7.09 µM and the GI50 (HCT-116 colon) was 4.2 µM and 3.02 µM. The TGI (HCT-116 colon) was 9.66 µM and 8.22 µM, the GI50 (LOX IMVI melanoma) was 4.16 µM and 3.96 µM and the TGI (LOX IMVI melanoma) was 7.9 µM and 7.86 µM. For the same compound, the GI50 (OVCAR-3 ovarian) was 4.42 µM and 4.64 µM and the TGI (OVCAR-3 ovarian) was 9.42 µM and 10.9 µM.
O=C1c2ccccc2-c2c1c1ccc([N+](=O)[O-])cc1c(=O)n2CCCNCCO showed a GI50 (SN12C renal) of 0.287 µM, a TGI (SN12C renal) of 2.07 µM and a GI50 (PC-3 prostate) of 0.0907 µM. For the same compound, the TGI (PC-3 prostate) was 1.52 µM, the GI50 (HCT-15 colon) was 0.276 µM and the TGI (HCT-15 colon) was 1.69 µM. For the same compound, the GI50 (MDA-MB-435) was 0.95 µM, the TGI (MDA-MB-435) was 2.67 µM and the GI50 (HCT-116 colon) was 0.0612 µM. For the same compound, the TGI (HCT-116 colon) was 0.441 µM, the GI50 (LOX IMVI melanoma) was 0.0665 µM and the TGI (LOX IMVI melanoma) was 0.348 µM. The GI50 (OVCAR-3 ovarian) was 1.14 µM and the TGI (OVCAR-3 ovarian) was 2.78 µM.
For Cc1ccc(Nc2cc(C)nc(NCCCNc3ccnc4cc(Cl)ccc34)n2)cc1, the GI50 (SN12C renal) was 1.49 µM, the TGI (SN12C renal) was 3.11 µM and the GI50 (PC-3 prostate) was 1.57 µM. The TGI (PC-3 prostate) was 3.79 µM, the GI50 (HCT-15 colon) was 0.767 µM and the TGI (HCT-15 colon) was 2.21 µM. The GI50 (MDA-MB-435) was 1.41 µM, the TGI (MDA-MB-435) was 2.7 µM and the GI50 (HCT-116 colon) was 1.09 µM. It also gave a TGI (HCT-116 colon) of 2.81 µM, a GI50 (LOX IMVI melanoma) of 1.38 µM and a TGI (LOX IMVI melanoma) of 2.83 µM. The GI50 (OVCAR-3 ovarian) was 1.7 µM and the TGI (OVCAR-3 ovarian) was 3.5 µM.
In the case of O=C(N/N=C/c1ccc(Cl)cc1Cl)c1ccc2nc(-c3ccc(Cl)cc3)[nH]c2c1, the GI50 (SN12C renal) was 1.96 µM, the TGI (SN12C renal) was 4.26 µM and the GI50 (PC-3 prostate) was 1.55 µM. For the same compound, the TGI (PC-3 prostate) was 3.3 µM, the GI50 (HCT-15 colon) was 1.42 µM and the TGI (HCT-15 colon) was 3.03 µM. It also gave a GI50 (MDA-MB-435) of 1.73 µM, a TGI (MDA-MB-435) of 3.35 µM and a GI50 (HCT-116 colon) of 1.45 µM. The TGI (HCT-116 colon) was 3.51 µM, the GI50 (LOX IMVI melanoma) was 1.57 µM and the TGI (LOX IMVI melanoma) was 2.94 µM. For the same compound, the GI50 (OVCAR-3 ovarian) was 1.84 µM and the TGI (OVCAR-3 ovarian) was 3.39 µM.
